The target in one data set is human GPR40 receptor (Homo sapiens (Human), UniProt O14842). Briefly: IP1 accumulation measurements using the IPOne assay system. It is filed as cell-based. As to conditions: 1321N1 cells stably expressing human GPR40 receptor, 1 h stimulation. How it is done:
IP1 accumulation measurements using the IPOne assay system—1321N1 cells stably expressing human GPR40 receptor (Euroscreen, Belgium) are seeded 24 h before the assay in white 384-well plates in culture medium containing 10% FCS, 1% Na-Pyruvate and 400 μg/mL G418. IP1 is assayed according to the manufacturer's description (Cisbio Bioassays, France). In brief, the assay is started by substitution of the culture medium by stimulation buffer (Hepes 10 mM, CaCl2 1 mM, MgCl2 0.5 mM, KCl 4.2 mM, NaCl 146 mM, glucose 5.5 mM and LiCl 50 mM, pH 7.4). Cells are stimulated for 1 h at 37° C., 5% CO2 by addition of the compounds that are diluted in stimulation buffer containing LiCl. Assays are stopped by adding HTRF-conjugates (IP1-d2 and Anti-IP1 cryptate Tb) and lysis buffer, provided by the manufacturer. After an incubation time of 1 h at room temperature plates are measured using an EnVision™, Perkin Elmer. The obtained fluorescence ratios at 665/615 […] are then used to calculate the pEC50 values using Assay Explorer 3.3 Software (Accelrys, Inc.) by interpolation using an IP1 reference curve and subsequent sigmoidal curve fitting allowing for a variable hill slope.

A short description of data set [1]: Chemical stability (degradation kinetics) in acidic aqueous media, HPLC recovery rate. The data set is classed as physicochemical. The settings on record: pH value of ca. 1.2, acetonitrile/0.1 M aqueous HCl (2:3), 37° C. How it is done: Degradation kinetics is used to simulate chemical stability of compounds in the acidic part of the gastro intestinal tract.
The chemical stability of the compounds of the invention at pH value of ca. 1.2 is determined as follows:
Compound is dissolved in an HPLC vial either in a mixture of acetonitrile/0.1 M aqueous HCl (2:3; pH ca. 1.2) or in a mixture of acetonitrile/McIlvaine buffer pH 7.4 (2:3) to get a concentration of approximately 0.25 mg/ml. The vial was then transferred into an HPLC autosampler system and maintained at a temperature of 37° C. A first sample is taken and injected immediately into a standard HPLC system with a UV DAD detector. Further samples are injected after 2, 4, 6, 8 and 10 hours. Degradation of the compound is measured by determining the recovery rate of compound [%] for each injection using an HPLC standard gradient method. Therefore the peak area of the main peak for the first injection (AUt0) is determined and set as 100%. Peak area of the main peak is determined also for the further injections (AUtn, n=2, 4, 6, 8, 10) and expressed as fraction of […] [%].

Molecules are shown by their SMILES.

This note sets out measurements from patent publication US9597310B2, “Indanyloxydihydrobenzofuranylacetic acids” (Boehringer Ingelheim International GmbH, priority 2012, dated 2017).

Broadly, the EC50 is the concentration giving half of the maximal effect.

human GPR40 receptor, sequence (O14842 whole entry): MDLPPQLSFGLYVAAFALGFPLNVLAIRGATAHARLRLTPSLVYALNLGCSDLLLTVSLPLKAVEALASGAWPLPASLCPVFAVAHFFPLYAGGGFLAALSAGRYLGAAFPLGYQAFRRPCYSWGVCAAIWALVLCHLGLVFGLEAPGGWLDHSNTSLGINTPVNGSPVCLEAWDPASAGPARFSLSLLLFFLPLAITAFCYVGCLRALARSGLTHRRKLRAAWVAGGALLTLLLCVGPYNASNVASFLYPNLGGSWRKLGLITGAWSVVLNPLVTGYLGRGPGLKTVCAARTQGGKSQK

As for `COCCOc1ccc(Oc2ccc(F)c3c2CC[C@H]3Oc2ccc3c(c2)OC[C@H]3CC(=O)O)cc1` [Example 1, [(S)-6-{(R)-7-Fluoro-4-[4-(2-methoxy-ethoxy)-phenoxy]-indan-1-yloxy}-2,3-dihydro-benzofuran-3-yl]-acetic acid], at human GPR40 receptor, the response was half-maximal at 0.007 µM (EC50). The “Recovery rate after 2 h” value in data set [1] turned out to be 97.5%.

`CC(C)(O)CCOc1ccc(Oc2ccc(F)c3c2CC[C@H]3Oc2ccc3c(c2)OC[C@H]3CC(=O)O)cc1` [Example 2, [(S)-6-{(R)-7-Fluoro-4-[4-(3-hydroxy-3-methyl-butoxy)-phenoxy]-indan-1-yloxy}-2,3-dihydro-benzofuran-3-yl]-acetic acid] returned an EC50 at human GPR40 receptor of 0.005 µM. In addition, the “Recovery rate after 2 h” value in data set [1] is reported as over 98%.

For the compound `CC(C)(O)COc1ccc(Oc2ccc(F)c3c2CC[C@H]3Oc2ccc3c(c2)OC[C@H]3CC(=O)O)cc1` [Example 3, [(S)-6-{(R)-7-Fluoro-4-[4-(2-hydroxy-2-methyl-propoxy)-phenoxy]-indan-1-yloxy}-2,3-dihydro-benzofuran-3-yl]-acetic acid], it took 0.013 µM to reach a half-maximal effect on human GPR40 receptor (EC50). Further, the “Recovery rate after 2 h” value in data set [1] was determined as 97.5%.

The compound `CC(=O)Nc1cccc(Oc2ccc(F)c3c2CC[C@H]3Oc2ccc3c(c2)OC[C@H]3CC(=O)O)c1` [Example 6, {(S)-6-[(R)-4-(3-Acetylamino-phenoxy)-7-fluoro-indan-1-yloxy]-2,3-dihydro-benzofuran-3-yl}-acetic acid] showed an EC50 at human GPR40 receptor of 0.008 µM. In addition, the “Recovery rate after 2 h” value in data set [1] is over 98%.

In the case of `O=C(O)C[C@@H]1COc2cc(O[C@@H]3CCc4c(Oc5ccc(C(=O)N6CCCC6)cc5)ccc(F)c43)ccc21` [Example 9, [(S)-6-{(R)-7-Fluoro-4-[4-(pyrrolidine-1-carbonyl)-phenoxy]-indan-1-yloxy}-2,3-dihydro-benzofuran-3-yl]-acetic acid], at human GPR40 receptor, the EC50 was 0.018 µM. For the same compound, in data set [1], the “Recovery rate after 2 h” value is recorded as over 99%.

On to `O=C(O)C[C@@H]1COc2cc(O[C@@H]3CCc4c(Oc5ccc6c(c5)CCO6)ccc(F)c43)ccc21` [Example 11, {(S)-6-[(R)-4-(2,3-Dihydro-benzofuran-5-yloxy)-7-fluoro-indan-1-yloxy]-2,3-dihydro-benzofuran-3-yl}-acetic acid], for which the EC50 on human GPR40 receptor was 0.006 µM. In data set [1], the “Recovery rate after 2 h” value came to 96.5%.

For `CCNC(=O)c1ccc(Oc2ccc(F)c3c2CC[C@H]3Oc2ccc3c(c2)OC[C@H]3CC(=O)O)cc1` [Example 12, {(S)-6-[(R)-4-(4-Ethylcarbamoyl-phenoxy)-7-fluoro-indan-1-yloxy]-2,3-dihydro-benzofuran-3-yl}-acetic acid], the midpoint of the response at human GPR40 receptor, the EC50, lay at 0.018 µM. In addition, the “Recovery rate after 2 h” value in data set [1] was over 99%.

Compound `CC(C)(O)CCCc1ccc(Oc2ccc(F)c3c2CC[C@H]3Oc2ccc3c(c2)OC[C@H]3CC(=O)O)c(C#N)c1` [Example 56, ((S)-6-{(R)-4-[2-Cyano-4-(4-hydroxy-4-methylpentyl)phenoxy]-7-fluoro-indan-1-yloxy}-2,3-dihydrobenzofuran-3-yl)-acetic acid] registered a 50% effective concentration (EC50) at human GPR40 receptor of 0.038 µM.

At human GPR40 receptor, `O=C(O)C[C@@H]1COc2cc(O[C@@H]3CCc4c(Oc5cccc(N6CCCC6=O)c5)ccc(F)c43)ccc21` [Example 57, ((S)-6-{(R)-7-Fluoro-4-[3-(2-oxopyrrolidin-1-yl)phenoxy]-indan-1-yloxy}-2,3-dihydrobenzofuran-3-yl)-acetic acid] yielded a concentration giving a half-maximal response (EC50) of 0.004 µM.

With `O=C(O)C[C@@H]1COc2cc(O[C@@H]3CCc4c(Oc5ccc(N6CCCC6=O)cc5)ccc(F)c43)ccc21` [Example 58, ((S)-6-{(R)-7-Fluoro-4-[4-(2-oxopyrrolidin-1-yl)phenoxy]-indan-1-yloxy}-2,3-dihydrobenzofuran-3-yl)-acetic acid], at human GPR40 receptor, a half-maximal effect (EC50) was put at 0.018 µM.

`O=C(O)C[C@@H]1COc2cc(O[C@@H]3CCc4c(Oc5ccc(CN6CCCC6)cc5)ccc(F)c43)ccc21` [Example 59, ((S)-6-{(R)-7-Fluoro-4-[4-(pyrrolidin-1-ylmethyl)phenoxy]-indan-1-yloxy}-2,3-dihydrobenzofuran-3-yl)-acetic acid]: the EC50 on human GPR40 receptor came to 0.216 µM.

In the case of `N#CCc1ccc(Oc2ccc(F)c3c2CC[C@H]3Oc2ccc3c(c2)OC[C@H]3CC(=O)O)cc1` [Example 60, ((S)-6-{(R)-4-[4-(Cyanomethyl)phenoxy]-7-fluoro-indan-1-yloxy}-2,3-dihydrobenzofuran-3-yl)-acetic acid], a half-maximal response on human GPR40 receptor (EC50) required 0.02 µM.

The compound `N#CCCc1ccc(Oc2ccc(F)c3c2CC[C@H]3Oc2ccc3c(c2)OC[C@H]3CC(=O)O)cc1` [Example 61, ((S)-6-{(R)-4-[4-(2-Cyanoethyl)phenoxy]-7-fluoro-indan-1-yloxy}-2,3-dihydrobenzofuran-3-yl)-acetic acid] gave an EC50 on human GPR40 receptor of 0.013 µM.

At human GPR40 receptor, `CC(C)(O)CCc1ccc(Oc2ccc(F)c3c2CC[C@H]3Oc2ccc3c(c2)OC[C@H]3CC(=O)O)c(C#N)c1` [Example 62, ((S)-6-{(R)-4-[2-Cyano-4-(3-hydroxy-3-methylbutyl)phenoxy]-7-fluoro-indan-1-yloxy}-2,3-dihydrobenzofuran-3-yl)-acetic acid] yielded an EC50 of 0.012 µM.

Compound `CN(C)C(=O)c1ccc(Oc2ccc(F)c3c2CC[C@H]3Oc2ccc3c(c2)OC[C@H]3CC(=O)O)cc1` [Example 63, ((S)-6-{(R)-4-[4-(Dimethylcarbamoyl)phenoxy]-7-fluoro-indan-1-yloxy}-2,3-dihydrobenzofuran-3-yl)-acetic acid] yielded an EC50 on human GPR40 receptor of 0.022 µM.

At human GPR40 receptor, `O=C(O)C[C@@H]1COc2cc(O[C@@H]3CCc4c(Oc5ccc(C(=O)N6CCOCC6)cc5)ccc(F)c43)ccc21` [Example 64, ((S)-6-{(R)-7-Fluoro-4-[4-(morpholine-4-carbonyl)phenoxy]-indan-1-yloxy}-2,3-dihydrobenzofuran-3-yl)-acetic acid] came in with a half-maximal effective concentration (EC50) of 0.027 µM.

`N#Cc1cc(CN2CCOCC2)ccc1Oc1ccc(F)c2c1CC[C@H]2Oc1ccc2c(c1)OC[C@H]2CC(=O)O` [Example 70, ((S)-6-{(R)-4-[2-Cyano-4-(morpholin-4-ylmethyl)phenoxy]-7-fluoro-indan-1-yloxy}-2,3-dihydrobenzofuran-3-yl)-acetic acid] yielded an EC50 at human GPR40 receptor of 0.044 µM.

`O=C(O)C[C@@H]1COc2cc(OC3CCc4ccccc43)ccc21` (some centres unmarked) [XX, reference compound]: the “Recovery rate after 2 h” value in data set [1] is listed as under 5%.

As for `CC(C)c1cccc2c1CC[C@H]2Oc1ccc2c(c1)OC[C@H]2CC(=O)O` [XXI, reference compound], the “Recovery rate after 2 h” value in data set [1] is given as under 5%.
